Source: US8871738B2, “Fused bicyclic oxazolidinone CETP inhibitor” (Merck Sharp & Dohme Corp., priority 2011, dated 2014)
Like-named read-outs stand apart in the source and are kept apart here.

Target: endogenous CETP from serum (Homo sapiens (Human), UniProt P11597)
Assay: RTA assay in 95% human serum (CETP-catalyzed CE and TG transfer, endogenous CETP)
Assay type: biochemical
[1] = RTA assay in 95% human serum, read-out: IC50

endogenous CETP from serum, sequence (P11597 18-493 limits assumed): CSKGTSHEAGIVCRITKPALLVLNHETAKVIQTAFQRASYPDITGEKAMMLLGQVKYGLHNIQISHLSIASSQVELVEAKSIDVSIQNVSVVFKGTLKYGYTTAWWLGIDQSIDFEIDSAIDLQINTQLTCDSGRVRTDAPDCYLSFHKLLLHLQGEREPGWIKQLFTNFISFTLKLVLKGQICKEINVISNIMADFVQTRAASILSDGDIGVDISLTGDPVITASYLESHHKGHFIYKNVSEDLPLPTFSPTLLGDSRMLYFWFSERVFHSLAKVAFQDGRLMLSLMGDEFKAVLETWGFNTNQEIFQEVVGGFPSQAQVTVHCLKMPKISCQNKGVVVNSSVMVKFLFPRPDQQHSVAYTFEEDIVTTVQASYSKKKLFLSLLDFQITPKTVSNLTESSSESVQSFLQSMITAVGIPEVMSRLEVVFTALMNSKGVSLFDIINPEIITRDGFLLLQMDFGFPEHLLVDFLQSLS

SMILES | IC50 [1] | IC50 (RTA assay, 95% human serum, read-out: RTA (95% HS))
Cc1cscc1-c1ccc(C(F)(F)F)cc1[C@@H]1CC[C@H]2[C@@H](c3cc(C(F)(F)F)cc(C(F)(F)F)c3)OC(=O)N12 [Example 24, (1R,5S,7aS)-1-[3,5-bis(trifluoromethyl)phenyl]-5-[2-(4-methylthiophen-3-yl)-5-(trifluoromethyl)phenyl]tetrahydro-1H-pyrrolo[1,2-c][1,3]oxazol-3-one] | 122 nM | –
COc1ncc(C(F)(F)F)cc1-c1ccc(C(F)(F)F)cc1[C@@H]1CC[C@H]2[C@@H](c3cc(C(F)(F)F)cc(C(F)(F)F)c3)OC(=O)N12 [Example 10, (1R,5S,7aS)-1-[3,5-bis(trifluoromethyl)phenyl]-5-{2-[2-methoxy-5-(trifluoromethyl)pyridin-3-yl]-5-(trifluoromethyl)phenyl}tetrahydro-1H-pyrrolo[1,2-c][1,3]oxazol-3-one] | 371 nM | –
COc1cc(F)c(C(C)C)cc1-c1cnc(N(C)C)nc1[C@@H]1C=C[C@H]2[C@@H](c3cc(C(F)(F)F)cc(C(F)(F)F)c3)OC(=O)N12 [Example 48, (1R,5S,7aS)-1-[3,5-bis(trifluoromethyl)phenyl]-5-{2-(dimethylamino)-5-[4-fluoro-2-methoxy-5-(1-methylethyl)phenyl]pyrimidin-4-yl}-5,7a-dihydro-1H-pyrrolo[1,2-c][1,3]oxazol-3-one] | 695 nM | –
Cc1cc(C(=O)O)ccc1-c1cnc(C)c(-c2ccc(C(F)(F)F)cc2[C@@H]2CC[C@H]3[C@@H](c4cc(C(F)(F)F)cc(C(F)(F)F)c4)OC(=O)N23)c1 [Example 66, 4-{5-[2-{(1R,5S,7aS)-1-[3,5-bis(trifluoromethyl)phenyl]-3-oxotetrahydro-1H-pyrrolo[1,2-c][1,3]oxazol-5-yl}-4-(trifluoromethyl)phenyl]-6-methylpyridin-3-yl}-3-methylbenzoic acid] | 1290 nM | –
Cc1cocc1-c1ccc(C(F)(F)F)cc1[C@@H]1CC[C@H]2[C@@H](c3cc(C(F)(F)F)cc(C(F)(F)F)c3)OC(=O)N12 [Example 16, (1R,5S,7aS)-1-[3,5-bis(trifluoromethyl)phenyl]-5-[2-(4-methylfuran-3-yl)-5-(trifluoromethyl)phenyl]tetrahydro-1H-pyrrolo[1,2-c][1,3]oxazol-3-one] | 343 nM | –
COc1ccc(C)cc1-c1ccc(C(F)(F)F)cc1[C@@H]1CC[C@H]2[C@@H](c3cc(C(F)(F)F)cc(C(F)(F)F)c3)OC(=O)N12 [Example 13, (1R,5S,7aS)-1-[3,5-bis(trifluoromethyl)phenyl]-5-[2′-methoxy-5′-methyl-4-(trifluoromethyl)biphenyl-2-yl]tetrahydro-1H-pyrrolo[1,2-c][1,3]oxazol-3-one] | 263 nM | –
COc1ccc(-c2ccc(C(=O)O)cc2C)cc1-c1ccc(F)cc1[C@@H]1CC[C@H]2[C@@H](c3cc(C(F)(F)F)cc(C(F)(F)F)c3)OC(=O)N12 [Example 34, 2″-{(1R,5S,7aS)-1-[3,5-bis(trifluoromethyl)phenyl]-3-oxotetrahydro-1H-pyrrolo[1,2-c][1,3]oxazol-5-yl}-4″-fluoro-4′-methoxy-2-methyl-1,1′:3′,1″- terphenyl-4-carboxylic acid] | 229 nM | –
COc1ccc(F)cc1-c1ccc(C(F)(F)F)cc1[C@@H]1CC[C@H]2[C@@H](c3cc(C(F)(F)F)cc(C(F)(F)F)c3)OC(=O)N12 [Example 19, (1R,5S,7aS)-1-[3,5-bis(trifluoromethyl)phenyl]-5-[5′-fluoro-2′-methoxy-4-(trifluoromethyl)biphenyl-2-yl]tetrahydro-1H-pyrrolo[1,2-c][1,3]oxazol-3-one] | 166 nM | –
COC(=O)CCc1ccc(OC)c(-c2ccc(C(F)(F)F)cc2[C@@H]2CC[C@H]3[C@@H](c4cc(C(F)(F)F)cc(C(F)(F)F)c4)OC(=O)N23)c1 [Example 1, Methyl 3-[2′-{(1R,5S,7aS)-1-[3,5-bis(trifluoromethyl)phenyl]-3-oxotetrahydro-1H-pyrrolo[1,2-c][1,3]oxazol-5-yl}-6-methoxy-4′-(trifluoromethyl)biphenyl-3-yl]propanoate] | – | 296 nM
COc1cc(F)c(C(C)C)cc1-c1ccc(C(F)(F)F)cc1[C@@H]1CCC[C@H]2[C@@H](c3cc(C(F)(F)F)cc(C(F)(F)F)c3)OC(=O)N12 [Example 43, (1R,5S,8aS)-1-[3,5-bis(trifluoromethyl)phenyl]-5-[4′-fluoro-2′-methoxy-5′-(1-methylethyl)-4-(trifluoromethyl)biphenyl-2-yl]hexahydro[1,3]oxazolo[3,4-a]pyridin-3-one] | 1210 nM | –
COc1cc(F)c(C(C)C)cc1-c1ccc(C(F)(F)F)cc1[C@@H]1C=C[C@H]2[C@@H](c3cc(C(F)(F)F)cc(C(F)(F)F)c3)OC(=O)N12 [Example 51, (1R,5S,7aS)-1-[3,5-bis(trifluoromethyl)phenyl]-5-[4′-fluoro-2′-methoxy-5′-(1-methylethyl)-4-(trifluoromethyl)biphenyl-2-yl]-5,7a-dihydro-1H-pyrrolo[1,2-c][1,3]oxazol-3-one] | 122 nM | –
COc1cc(F)c(-c2ccc(C(=O)O)cc2C)cc1-c1ccc(C(F)(F)F)cc1[C@@H]1CC[C@H]2[C@@H](c3cc(C)cc(C(F)(F)F)c3)OC(=O)N12 [Example 29, 6′-fluoro-4′-methoxy-2-methyl-2″- {(1R,5S,7aS)-1-[3-methyl-5-(trifluoromethyl)phenyl]-3-oxotetrahydro-1H-pyrrolo[1,2-c][1,3]oxazol-5-yl}-4″- (trifluoromethyl)-1,1′:3′,1″- terphenyl-4-carboxylic acid] | 44.6 nM | –
COc1ccc(-c2cnc(C(=O)O)cc2C)cc1-c1ccc(F)cc1[C@@H]1CC[C@H]2[C@@H](c3cc(C(F)(F)F)cc(C(F)(F)F)c3)OC(=O)N12 [Example 38, 5-(2′-{(1R,5S,7aS)-1-[3,5-bis(trifluoromethyl)phenyl}-3-oxotetrahydro-1H-pyrrolo[1,2-c][1,3]oxazol-5-yl}-4′-fluoro-6-methxoybiphenyl-3-yl)-4-methylpyridine-2-carboxylic acid] | 1740 nM | –
O=C1O[C@H](c2cc(C(F)(F)F)cc(C(F)(F)F)c2)[C@@H]2CC[C@@H](c3cc(C(F)(F)F)ccc3-c3cc(Cl)ccc3F)N12 [Example 23, (1R,5S,7aS)-1-[3,5-bis(trifluoromethyl)phenyl]-5-[5′-chloro-2′-fluoro-4-(trifluoromethyl)biphenyl-2-yl]tetrahydro-1H-pyrrolo[1,2-c][1,3]oxazol-3-one] | 188 nM | –
COc1ncc(C(C)C)cc1-c1ccc(C(F)(F)F)cc1[C@@H]1CC[C@H]2[C@@H](c3cc(C(F)(F)F)cc(C(F)(F)F)c3)OC(=O)N12 [Example 45, (1R,5S,7aS)-1-[3,5-bis(trifluoromethyl)phenyl]-5-{2-[2-methoxy-5-(1-methylethyl)pyridin-3-yl]-5-(trifluoromethyl)phenyl}tetrahydro-1H-pyrrolo[1,2-c][1,3]oxazol-3-one] | 44.7 nM | –
COc1ncc(-c2ccc(C(=O)O)cc2C)cc1-c1ncc(C(F)(F)F)cc1[C@@H]1C=C[C@H]2[C@@H](c3cc(C(F)(F)F)cc(C(F)(F)F)c3)OC(=O)N12 [Example 69, 4-(3-((1R,5S,7aS)-1-(3,5-bis(trifluoromethyl)phenyl)-3-oxo-1,3,5,7a-tetrahydropyrrolo[1,2-c]oxazol-5-yl)-2′-methoxy-5-(trifluoromethyl)-[2,3′-bipyridin]-5′-yl)-3-methylbenzoic acid] | 456 nM | –
